For orientation: EC50 means the midpoint of the concentration-response curve. As usually defined, the Ki is the dissociation constant of the complex between target and ligand, obtained from inhibition or displacement. High values mean a looser hold on the target, low ones a stronger hold on the target.

Like-named read-outs stand apart in the source and are kept apart here.

The results in this text go back to publication PMC6933707, “Palmitoylethanolamide counteracts substance P-induced mast cell activation in vitro by stimulating diacylglycerol lipase activity” (Journal of Neuroinflammation, 2019).

One data set deals with RBL-2H3 cells. The class given is cell-based. Conditions: 15 min. As to the method: The relative number of live and dead cells was measured after 15 min in RBL-2H3 cells (2 × 10^5 cells/well) stimulated with SP (10 μM) and treated with PEA (10 μM) by using MultiTox-Glo multiplex cytotoxicity kit, according to the manufacturer’s instructions (Promega Italia). Relative fluorescence units (RFU) were measured by using a GloMax Multi Detection System (Promega Italia).

In a further data set the target is T1, human recombinant DAGL-α (Homo sapiens, UniProt Q9Y4D2).
T1 construct: expressed in transfected cells; host or cells: COS-7
T1 sequence (Q9Y4D2 1-1042): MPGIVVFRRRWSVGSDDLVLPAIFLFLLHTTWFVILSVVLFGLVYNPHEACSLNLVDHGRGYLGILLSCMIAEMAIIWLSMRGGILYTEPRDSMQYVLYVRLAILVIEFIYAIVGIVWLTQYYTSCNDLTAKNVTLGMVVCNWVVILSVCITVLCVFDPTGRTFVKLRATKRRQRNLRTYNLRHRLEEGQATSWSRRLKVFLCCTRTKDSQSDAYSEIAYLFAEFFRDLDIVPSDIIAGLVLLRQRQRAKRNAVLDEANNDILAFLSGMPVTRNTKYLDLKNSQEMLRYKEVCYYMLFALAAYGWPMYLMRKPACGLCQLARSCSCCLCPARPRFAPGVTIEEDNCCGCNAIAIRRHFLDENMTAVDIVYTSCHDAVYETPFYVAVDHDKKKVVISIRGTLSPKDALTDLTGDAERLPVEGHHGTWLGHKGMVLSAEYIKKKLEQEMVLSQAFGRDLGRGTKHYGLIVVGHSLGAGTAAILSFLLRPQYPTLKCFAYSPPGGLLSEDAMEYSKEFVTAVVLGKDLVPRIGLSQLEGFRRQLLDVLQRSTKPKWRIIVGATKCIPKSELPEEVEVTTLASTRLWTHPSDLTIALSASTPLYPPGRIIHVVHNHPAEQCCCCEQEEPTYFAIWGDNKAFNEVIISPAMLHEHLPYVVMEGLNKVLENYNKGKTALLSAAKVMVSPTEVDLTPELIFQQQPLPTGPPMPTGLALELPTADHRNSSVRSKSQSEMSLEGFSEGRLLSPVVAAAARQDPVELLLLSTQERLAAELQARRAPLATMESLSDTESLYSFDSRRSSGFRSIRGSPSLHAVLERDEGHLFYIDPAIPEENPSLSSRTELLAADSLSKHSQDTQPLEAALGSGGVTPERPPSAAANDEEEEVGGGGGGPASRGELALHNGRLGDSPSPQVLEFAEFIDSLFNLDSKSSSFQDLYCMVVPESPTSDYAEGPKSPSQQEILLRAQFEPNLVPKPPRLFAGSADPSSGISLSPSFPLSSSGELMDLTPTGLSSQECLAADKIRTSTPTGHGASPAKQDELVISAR
In words: DAGL-α enzyme activity assay (COS-7 membranes; radiolabelled substrate or 2-AG by LC-MS). The class given is biochemical. As to the method: DAGL-α enzyme activity was assessed as previously reported by using membrane preparations (50 μg of protein) obtained from COS-7 cells overexpressing the human recombinant DAGL-α enzyme, and 1-[^14C]oleoyl-2-arachidonoylglycerol (1.0 mCi/mmol, 25 μM, synthesized as previously reported, as substrate in the presence of vehicle or increasing concentrations of PEA (0.1–25 μM) in Tris-HCl 50 mM pH 7.4. After the incubation (20 min at 37 °C), lipids were extracted with two volumes of CHCl3/CH3OH (2:1, v/v). The organic extracts, lyophilized under vacuum, were used to quantify the levels of 2-AG by LC-APCI-MS (as described above), or purified by using TLC on silica on polypropylene plates eluted in CHCl3/CH3OH/NH4OH (85:15:0.1%, v/v) as the eluting solvent. Bands corresponding to [^14C]-oleic acid were cut and their radioactivity was measured by using Liquid Scintillation Analyzer (TRI-carb 2100TR). Data were expressed as % of DAGL-α stimulation. To quantify the levels of 2-AG by LC-APCI-MS a non-radiolabeled 1-oleoyl-2-arachidonoylglycerol substrate was used.

In another data set the target is human CB2 receptor (Homo sapiens, UniProt P34972). In words: Competition binding assay for CB2 receptors ([3H]-CP-55,940 displacement). Details: purchased Perkin Elmer; host or cells: HEK-293. The text has this:
Data were expressed as Ki (μM) and calculated by applying the Cheng-Prusoff equation to the IC50 values for the displacement of the bound radioligand.

Where [1] appears, read: SP (10 μM)-stimulated cells, PEA 10 μM, vs vehicle-stimulated cells.
Where [2] appears, read: substance alone 10 μM, vs vehicle.

human CB2 receptor, sequence (P34972 whole entry): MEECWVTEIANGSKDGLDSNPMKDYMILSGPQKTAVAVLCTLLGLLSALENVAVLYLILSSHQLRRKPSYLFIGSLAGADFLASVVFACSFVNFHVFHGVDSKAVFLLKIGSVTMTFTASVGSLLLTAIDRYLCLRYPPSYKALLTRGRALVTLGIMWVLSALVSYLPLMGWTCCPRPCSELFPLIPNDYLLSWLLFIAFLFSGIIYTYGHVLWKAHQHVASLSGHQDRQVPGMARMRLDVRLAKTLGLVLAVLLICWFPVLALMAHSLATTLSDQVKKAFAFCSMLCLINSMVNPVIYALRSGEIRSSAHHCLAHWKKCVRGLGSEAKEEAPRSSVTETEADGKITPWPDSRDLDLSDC

For `CCCCCCCCCCCCCCCC(=O)NCCO` [PEA, Palmitoylethanolamide], the cell viability result is on record as “did not alter” with RBL-2H3 cells (setting [1]) and “No effect” with RBL-2H3 cells (setting [2]). Besides, the cytotoxicity entry with RBL-2H3 cells (setting [1]) is listed as “did not alter”; in the data set on RBL-2H3 cells (setting [2]), “No effect”. For the same compound, the “elevation of levels of 2-AG produced by DAGL-α (LC-MS)” value at human recombinant DAGL-α (PEA 25 μM + substrate, compared to membrane preparations incubated alone (no substrate, no PEA)) is 5.6 fold; on human recombinant DAGL-α (PEA 25 μM, compared to membrane preparations incubated with the substrate 1-oleoyl-2-arachidonoylglycerol and without PEA), 1.4 fold. Moreover, at human recombinant DAGL-α (membranes of COS-7 cells over-expressing DAGL-α, 20 min 37 °C, read-out: EC50, stimulation of DAGL-α activity), the EC50 stood at 17.3 ± 2.35 µM. The “[3H]-CP55,940 displacement” value on human CB2 receptor (PEA 10 μM per se, WIN55,212-2 10 μM = 100% displacement) came out at 33.51 ± 5.28%. The inhibition constant (Ki) at human CB2 receptor (compound alone, displacement of [3H]-CP-55,940, HEK-293 membranes, 90 min 30 °C) was greater than 10 µM.
